Reference: patent publication EP3674287A1, “COCRYSTALS OF (R)-BACLOFEN” (Zaklady Farmaceutyczne "Polpharma" S.A., priority 2018, dated 2020)

Key:
[1] = Preliminary solubility study of (R)-Baclofen in 18 solvents; format: physicochemical; conditions: for Solubility: 40 volume
Protocol: A preliminary study of (R)-Baclofen solubility was performed using different solvents (18 solvents) in order to design a proper experimental space to obtain or detect a new crystalline form.
Solubility test were performed with 25 mg of (R)-Baclofen in a test tube with screw cap and magnetic stirring. The solvent was added in small portions of 2 volumes (mg/ml) at room temperature up to 40 volumes. After each addition, the sample was stirred for 2-5 minutes.

[2] = pKa of the coformer; cited from earlier work
[3] = Solubility of prior-art crystal forms in water (EP2345634 B1); format: physicochemical; conditions: 25°C
[4] = Chemical stability study under accelerated ICH storage conditions (HPLC); format: physicochemical; conditions: for Chemical stability (HPLC): 40°C/ 75 ± 5 % RH, during 0, 1, 2 and 4 weeks; for Impurity CA1 (HPLC % a/a): RRT 0.48; for Impurity CA1 (HPLC % a/a) / Impurity A+Impurity CA2 (HPLC % a/a) / Impurity A (HPLC % a/a) / Impurity SA1 (HPLC % a/a) / Impurity B + Impurity FA1 (HPLC % a/a): 40 °C / 75 ± 5 % RH; for Impurity A+Impurity CA2 (HPLC % a/a) / Impurity A (HPLC % a/a): RRT 0.7; for Impurity SA1 (HPLC % a/a): RRT 0.33; for Impurity B + Impurity FA1 (HPLC % a/a): RRT 0.3
Protocol: Sample concentration : 5mg/5ml in ACN/H2O-0.1 methane sulfonic acid 20:80 Injection Volume: 10 µl; Run Time: 20.0 minutes; Column: […]100, 4.6x150 mm;100A,5µm; Mobile phase: gradient: ACN/H2O- 0.1 methane sulfonic acid 20:80 / ACN (95:5) -(75:25) - (95:5) Column temp.: 40°C; and Flow rate: 1 ml/min.
Samples were taken periodically (0 (start), after 1, 2, and 4 weeks) and analyzed by HPLC.
Retention time of (R)-Baclofen under conditions described in the Section "Measuring instruments, conditions and protocols" above, is about 13 min and the relative retention times (RRT) of known impurities are given below.

[5] = Coformer pKa and ΔpKa; format: physicochemical; conditions: (R)-Baclofen versus coformer
[6] = Crystalline stability test under accelerated ICH storage conditions (XRPD); format: physicochemical
Protocol: The expression "crystalline stability" means that no conversion into another crystalline form occurs, as determined by XRPD. […]
Crystalline stability study of the new cocrystals found during the screening was performed under accelerated ICH storage conditions (40°C, 75±5 % RH) for 1 week and 4 weeks. The results are summarized in the Table 16: Table 16: Crystalline stability of cocrystals

## NC[C@H](CC(=O)O)c1ccc(Cl)cc1 [(R)-Baclofen, (3R)-4-amino-3-(4-chlorophenyl)butanoic acid]
[1]; Acetone, reflux
  Solubility: Insoluble
[1]; Acetonitrile, reflux
  Solubility: Insoluble
[1]; DMF, reflux
  Solubility: Soluble
[1]; DMSO, reflux
  Solubility: Soluble
[1]; Dichloromethane, reflux
  Solubility: Insoluble
[1]; Dioxane, reflux
  Solubility: Insoluble
[1]; Ethanol, reflux
  Solubility: Insoluble
[1]; Ethyl acetate, reflux
  Solubility: Insoluble
[1]; Heptane, reflux
  Solubility: Insoluble
[1]; Isobutyl acetate, reflux
  Solubility: Insoluble
[1]; Isopropyl alcohol, reflux
  Solubility: Insoluble
[1]; Methanol, reflux
  Solubility: Insoluble
[1]; Methyl isobutyl ketone, reflux
  Solubility: Insoluble
[1]; THF, reflux
  Solubility: Insoluble
[1]; Tert-butyl methyl ether, reflux
  Solubility: Insoluble
[1]; Toluene, reflux
  Solubility: Insoluble
[1]; Water, reflux
  Solubility: soluble
[1]; cyclohexane, reflux
  Solubility: Insoluble
[1]; overall conclusion of the solvent study
  solubility in water and majority of commonly used organic solvents: low solubility
[1]; the other tested solvents (samples 4-18), even at reflux temperature
  Solubility: insoluble

## O=C(O)/C=C/c1ccccc1 [Cinnamic acid, (2E)-3-phenylprop-2-enoic acid]
[2]
  Coformer [pKa]: Cinnamic acid [pKa 4.10]

## NC[C@H](CC(=O)O)c1ccc(Cl)cc1 [Crystal Form B, (3R)-4-amino-3-(4-chlorophenyl)butanoic acid]
[3]
  solubility according to USP solubility test (descriptive term): sparingly soluble

## COc1cc(/C=C/C(=O)O)ccc1O [Ferulic acid, (E)-3-(4-hydroxy-3-methoxy-phenyl)prop-2-enoic acid]
[2]
  Coformer [pKa]: Ferulic acid [pKa 4.26]

## NCC(CC(=O)O)c1ccc(Cl)cc1.O=C(O)C=Cc1ccccc1 (stereo not shown) [Form III]
[4]
  Chemical stability (HPLC): stable
[4]; week 0
  Impurity CA1 (HPLC % a/a): 0.03 % a/a
[4]; week 1
  Impurity CA1 (HPLC % a/a): 0.03 % a/a
[4]; week 2
  Impurity CA1 (HPLC % a/a): 0.03 % a/a
[4]; week 4
  Impurity CA1 (HPLC % a/a): 0.03 % a/a
[4]; week 0, listed as Cocrystal Form III
  Impurity A+Impurity CA2 (HPLC % a/a): 0.04 % a/a
[4]; week 1, listed as Cocrystal Form III
  Impurity A+Impurity CA2 (HPLC % a/a): 0.04 % a/a
[4]; week 2, listed as Cocrystal Form III
  Impurity A+Impurity CA2 (HPLC % a/a): 0.04 % a/a
[4]; week 4, listed as Cocrystal Form III
  Impurity A+Impurity CA2 (HPLC % a/a): 0.04 % a/a
[5]
  ΔpKa: -0.60
[6]
  Crystalline stability study 40 °C/ 75 ± 5 % RH After 1 week: Stable
  Crystalline stability study 40 °C/ 75 ± 5 % RH After 4 weeks: Stable
[6]; listed as (R)-Baclofen-cinnamic acid cocrystal Form III
  Crystalline stability study 40 °C/ 75 ± 5 % RH After 4 weeks: stable

## NCC(CC(=O)O)c1ccc(Cl)cc1.NCC(CC(=O)O)c1ccc(Cl)cc1.O=C(O)c1ccccc1 (stereo not shown) [Form II]
[4]
  Chemical stability (HPLC): stable
[4]; week 0
  Impurity A (HPLC % a/a): 0.02 % a/a
[4]; week 1
  Impurity A (HPLC % a/a): 0.02 % a/a
[4]; week 2
  Impurity A (HPLC % a/a): 0.02 % a/a
[4]; week 4
  Impurity A (HPLC % a/a): 0.02 % a/a
[5]
  ΔpKa: -0.3
[6]
  Crystalline stability study 40 °C/ 75 ± 5 % RH After 1 week: stable
  Crystalline stability study 40 °C/ 75 ± 5 % RH After 4 weeks: Stable
[6]; listed as (R)-Baclofen-benzoic acid cocrystal Form II
  Crystalline stability study 40 °C/ 75 ± 5 % RH After 4 weeks: stable

## NCC(CC(=O)O)c1ccc(Cl)cc1.O=C(O)C=Cc1ccccc1 (stereo not shown) [Form IV]
[4]; week 0, listed as Cocrystal Form IV
  Impurity A+Impurity CA2 (HPLC % a/a): 0.03 % a/a
[4]; week 1, listed as Cocrystal Form IV
  Impurity A+Impurity CA2 (HPLC % a/a): 0.03 % a/a
[4]; week 2, listed as Cocrystal Form IV
  Impurity A+Impurity CA2 (HPLC % a/a): 0.03 % a/a
[4]; week 4, listed as Cocrystal Form IV
  Impurity A+Impurity CA2 (HPLC % a/a): 0.03 % a/a
[6]; listed as (R)-Baclofen-cinnamic acid cocrystal Form IV
  Crystalline stability study 40 °C/ 75 ± 5 % RH After 4 weeks: stable

## COc1cc(C=O)ccc1O.NCC(CC(=O)O)c1ccc(Cl)cc1.NCC(CC(=O)O)c1ccc(Cl)cc1 (stereo not shown) [Form IX]
[5]
  ΔpKa: -3.70
[6]
  Crystalline stability study 40 °C/ 75 ± 5 % RH After 1 week: Unstable
  Crystalline stability study 40 °C/ 75 ± 5 % RH After 4 weeks: Unstable

## NCC(CC(=O)O)c1ccc(Cl)cc1.O=C(O)c1ccccc1O (stereo not shown) [Form VIII]
[4]
  Chemical stability (HPLC): stable
[4]; week 0
  Impurity SA1 (HPLC % a/a): 0.05 % a/a
  Impurity A (HPLC % a/a): 0.04 % a/a
[4]; week 1
  Impurity SA1 (HPLC % a/a): 0.05 % a/a
  Impurity A (HPLC % a/a): 0.04 % a/a
[4]; week 2
  Impurity SA1 (HPLC % a/a): 0.05 % a/a
  Impurity A (HPLC % a/a): 0.04 % a/a
[4]; week 4
  Impurity SA1 (HPLC % a/a): 0.05 % a/a
  Impurity A (HPLC % a/a): 0.04 % a/a
[5]
  ΔpKa: 0.83
[6]
  Crystalline stability study 40 °C/ 75 ± 5 % RH After 1 week: Stable
  Crystalline stability study 40 °C/ 75 ± 5 % RH After 4 weeks: Stable
[6]; listed as (R)-Baclofen-salicylic acid cocrystal Form VIII
  Crystalline stability study 40 °C/ 75 ± 5 % RH After 4 weeks: stable

## NCC(CC(=O)O)c1ccc(Cl)cc1.NCC(CC(=O)O)c1ccc(Cl)cc1.O=C(O)C=CC(=O)O (stereo not shown) [Form VII]
[5]
  ΔpKa: 0.77
[6]
  Crystalline stability study 40 °C/ 75 ± 5 % RH After 1 week: Unstable
  Crystalline stability study 40 °C/ 75 ± 5 % RH After 4 weeks: Unstable

## COc1cc(C=CC(=O)O)ccc1O.NCC(CC(=O)O)c1ccc(Cl)cc1 [Form XII]
[4]
  Chemical stability (HPLC): stable
[4]; Form XII table, week 0
  Impurity A+Impurity CA2 (HPLC % a/a): 0.05 % a/a
[4]; Form XII table, week 1
  Impurity A+Impurity CA2 (HPLC % a/a): 0.04 % a/a
[4]; Form XII table, week 2
  Impurity A+Impurity CA2 (HPLC % a/a): 0.05 % a/a
[4]; Form XII table, week 4
  Impurity A+Impurity CA2 (HPLC % a/a): 0.05 % a/a
[4]; week 0
  Impurity B + Impurity FA1 (HPLC % a/a): 0.07 % a/a
[4]; week 1
  Impurity B + Impurity FA1 (HPLC % a/a): 0.07 % a/a
[4]; week 2
  Impurity B + Impurity FA1 (HPLC % a/a): 0.08 % a/a
[4]; week 4
  Impurity B + Impurity FA1 (HPLC % a/a): 0.07 % a/a
[6]
  Crystalline stability study 40 °C/ 75 ± 5 % RH After 1 week: Stable
  Crystalline stability study 40 °C/ 75 ± 5 % RH After 4 weeks: Stable
[6]; listed as (R)-Baclofen-ferulic acid cocrystal Form XII
  Crystalline stability study 40 °C/ 75 ± 5 % RH After 4 weeks: stable

## COc1cc(C=O)ccc1O [Vanillin]
[2]
  Coformer [pKa]: Vanillin [pKa 7.5]
